The text below walks through data of ChEMBL document CHEMBL5154835, “Design, synthesis and biological evaluation of sulfonamides inhibitors of XPO1 displaying activity against multiple myeloma cells” (Eur J Med Chem, 2022).

What all share (format): functional, cell-based
One test concerns MM1.S. Briefly: Antiproliferative activity against human MM1.S cells assessed as inhibition of cell growth incubated for 4 hrs by CCK-8 assay. (In general: Tetrazolium dyes change colour on reduction, which living cells bring about.)
Test [1] can be described thus: Antiproliferative activity against human MINO cells assessed as inhibition of cell growth incubated for 4 hrs by CCK-8 assay.
Test [2] can be described thus: Antiproliferative activity against human VAL cells assessed as inhibition of cell growth incubated for 4 hrs by CCK-8 assay.
Test [3] in a line: Antiproliferative activity against human Rael cells assessed as inhibition of cell growth incubated for 4 hrs by CCK-8 assay.
In the next test the test system is NAMALVA. Nature of the test: Antiproliferative activity against human NAMALVA cells assessed as inhibition of cell growth incubated for 4 hrs by CCK-8 assay.
Test [4] in a line: Antiproliferative activity against human Mutu-1 cells assessed as inhibition of cell growth incubated for 4 hrs by CCK-8 assay. Conditions: Mutu-1, 4 h.
The next test deals with H9. Nature of the test: Antiproliferative activity against human H9 cells assessed as inhibition of cell growth incubated for 4 hrs by CCK-8 assay. Conditions: H9, 4 h.
Test [5] is described as follows: Antiproliferative activity against human JB-6 cells assessed as inhibition of cell growth incubated for 4 hrs by CCK-8 assay. Conditions: JB6, 4 h.
Another test has as its system YT. Briefly: Antiproliferative activity against human YT cells assessed as inhibition of cell growth incubated for 4 hrs by CCK-8 assay.

In general, IC50 refers to the midpoint of a concentration-inhibition curve. Take `NC(=O)/C(=C/n1cnc(-c2cc(C(F)(F)F)cc(C(F)(F)F)c2)n1)c1ccc(NS(=O)(=O)c2ccccc2)cc1`: the IC50 with MM1.S worked out at 337 nM. Still for that read-out and setting: the result for `CCNC(=O)/C(=C/n1cnc(-c2cc(C(F)(F)F)cc(C(F)(F)F)c2)n1)c1ccc(NS(C)(=O)=O)cc1` reads 2160 nM; that for `N#Cc1cncc(/C(=C\n2cnc(-c3cc(C(F)(F)F)cc(C(F)(F)F)c3)n2)C(N)=O)c1`, 118 nM.

On to `NC(=O)/C(=C/n1cnc(-c2cc(C(F)(F)F)cc(C(F)(F)F)c2)n1)c1cccnc1`, for which, in the test with MM1.S, the IC50 was determined as 194 nM. As to `Cc1cn(/C=C(/C(N)=O)c2cncnc2)nc1-c1cc(C(F)(F)F)cc(C(F)(F)F)c1`, in the test on MM1.S, the IC50 was 2070 nM. Same read-out and setting: the result for `NC(=O)/C(=C/n1cnc(-c2cc(C(F)(F)F)cc(C(F)(F)F)c2)n1)c1cccnc1F` reads 359 nM; that for `CCOC(=O)/C(=C/n1cnc(-c2cc(C(F)(F)F)cc(C(F)(F)F)c2)n1)c1ccc(NS(C)(=O)=O)cc1`, 146 nM; that for `CS(=O)(=O)Nc1ccc(/C(=C\n2cnc(-c3cc(C(F)(F)F)cc(C(F)(F)F)c3)n2)C(N)=O)cc1C(F)(F)F`, 845 nM.

In the case of `CN(C)C(=O)/C(=C/n1cnc(-c2cc(C(F)(F)F)cc(C(F)(F)F)c2)n1)c1ccc(NS(C)(=O)=O)cc1`, in the test with MM1.S, the IC50 amounted to 8960 nM.

Turning to `COc1ccc(/C(=C\n2cnc(-c3cc(C(F)(F)F)cc(C(F)(F)F)c3)n2)C(N)=O)c(F)c1F`, in the test with MM1.S, the IC50 stood at 1200 nM.

With `CN(c1ccc(/C(=C\n2cnc(-c3cc(C(F)(F)F)cc(C(F)(F)F)c3)n2)C(N)=O)cc1)S(C)(=O)=O`, the IC50 in the test on MM1.S came out at 446 nM. The same measure, in the same setting: with `NC(=O)/C(=C/n1cnc(-c2cc(C(F)(F)F)cc(C(F)(F)F)c2)n1)c1ccc(F)nc1F` the figure was 667 nM; with `NC(=O)/C(=C/n1cc(F)c(-c2cc(C(F)(F)F)cc(C(F)(F)F)c2)n1)c1cncnc1`, 713 nM; with `CS(=O)(=O)Nc1cccc(/C(=C\n2cnc(-c3cc(C(F)(F)F)cc(C(F)(F)F)c3)n2)C(N)=O)c1`, 271 nM. The same measure, in the same setting: the result for `CCOc1ccc(/C(=C\n2cnc(-c3cc(C(F)(F)F)cc(C(F)(F)F)c3)n2)C(N)=O)c(F)c1F` reads > 10000 nM. Same read-out and setting: with `NC(=O)/C(=C/n1cnc(-c2cc(C(F)(F)F)cc(C(F)(F)F)c2)n1)c1ccc(NS(=O)(=O)C2CCCCC2)cc1` the figure was 1270 nM.

`NC(=O)/C(=C/n1cc(Cl)c(-c2cc(C(F)(F)F)cc(C(F)(F)F)c2)n1)c1cncnc1`: the IC50 with MM1.S was 2240 nM. On the same count and under the same terms, with `NC(=O)/C(=C/n1cnc(-c2cc(C(F)(F)F)cc(C(F)(F)F)c2)n1)c1cccc(F)c1F` the figure was 5200 nM. The same measure, in the same setting: with `NC(=O)/C(=C/n1cnc(-c2cc(C(F)(F)F)cc(C(F)(F)F)c2)n1)c1cc(F)c(F)c(F)c1` the figure was 2430 nM; with `N#Cc1cn(/C=C(/C(N)=O)c2cncnc2)nc1-c1cc(C(F)(F)F)cc(C(F)(F)F)c1`, 1190 nM. As to `NC(=O)/C(=C/n1cnc(-c2cc(C(F)(F)F)cc(C(F)(F)F)c2)n1)c1cncnc1` [ELTANEXOR], the IC50 was 64 nM in the test with MM1.S; 130 nM in test [1]; 287 nM in test [2]; 261 nM in test [3]; 93.8 nM in the test with NAMALVA; 283 nM in test [4]. Moreover, the 50% inhibitory concentration (IC50) in the test with H9 was found to be 139 nM; in test [5], 334 nM; in the test on YT, 103 nM. In the case of `NC(=O)/C(=C/n1cnc(-c2cc(C(F)(F)F)cc(C(F)(F)F)c2)n1)c1ccc(C(F)(F)F)nc1`, the 50% inhibitory concentration (IC50) with MM1.S came to 363 nM.

`CS(=O)(=O)Nc1cc(C#N)cc(/C(=C\n2cnc(-c3cc(C(F)(F)F)cc(C(F)(F)F)c3)n2)C(N)=O)c1`: the IC50 in the test on MM1.S was 833 nM. On the same count and under the same terms, with `COc1c(F)cc(/C(=C\n2cnc(-c3cc(C(F)(F)F)cc(C(F)(F)F)c3)n2)C(N)=O)cc1F` the figure was 3470 nM. Consider `Cc1ccc(S(=O)(=O)Nc2ccc(/C(=C\n3cnc(-c4cc(C(F)(F)F)cc(C(F)(F)F)c4)n3)C(N)=O)cc2)cc1`, for which, in the test with MM1.S, the 50% inhibitory concentration (IC50) was determined as 2750 nM.
